Laboratory results from the NIST ThermoML archive (doi:10.1016/j.fluid.2008.11.013).
± gives the expanded uncertainty stated by the source.

Settings: 101.33 kPa, Liquid, Vibrating tube method

Structure (SMILES)	mass density (298.15 K) [kg/m3]	mass density (303.15 K) [kg/m3]	mass density (308.14 K) [kg/m3]	mass density (313.15 K) [kg/m3]	mass density (318.15 K) [kg/m3]	mass density (323.14 K) [kg/m3]	mass density (328.14 K) [kg/m3]	mass density (333.14 K) [kg/m3]	mass density (338.14 K) [kg/m3]	mass density (343.14 K) [kg/m3]	mass density (348.15 K) [kg/m3]	mass density (278.16 K) [kg/m3]	mass density (283.14 K) [kg/m3]	mass density (288.14 K) [kg/m3]	mass density (293.15 K) [kg/m3]	mass density (298.14 K) [kg/m3]	mass density (303.14 K) [kg/m3]	mass density (313.14 K) [kg/m3]	mass density (318.14 K) [kg/m3]	mass density (338.15 K) [kg/m3]
CCCCCCCC[N+]1(C)CCCC1.O=S(=O)([N-]S(=O)(=O)C(F)(F)F)C(F)(F)F	1291.2 ± 12	1286.9 ± 12	1283 ± 12	1279.1 ± 12	1275.1 ± 11	1271.4 ± 11	1267.5 ± 11	1263.7 ± 11	1259.7 ± 11	1255.7 ± 11	1251.7 ± 11									
CCCCCC[N+]1(C)CCCC1.O=S(=O)([N-]S(=O)(=O)C(F)(F)F)C(F)(F)F			1326.8 ± 12			1314.1 ± 12	1309.9 ± 12	1305.6 ± 12		1297.1 ± 12		1352.1 ± 13	1347.7 ± 13	1343.4 ± 13	1339.5 ± 13	1335.3 ± 13	1331.1 ± 12	1322.6 ± 12	1318.3 ± 12	1301.4 ± 12
